Values quoted from earlier work as cited in patent publication US12691078B2, “Stable compositions of functional ingredients and methods of making the same” (Nulixir Inc., priority 2021, dated 2026).

settings: ethanol extraction of Golden Seal

Row | solubility in ethanol as a function of water content | Compound
1 | decreases rapidly with water content | COc1ccc2cc3[n+](cc2c1OC)CCc1cc2c(cc1-3)OCO2 [berberine]

settings: reference solvents n-octanol and water; pH=7 unless stated otherwise; mostly given as approximate (~=)

Row | Compound | logP
2 | COc1cc2c(c(OC)c1OC)-c1c(cc3c(c1OC)OCO3)CC(C)C(C)C2 (single isomer, unassigned; (-)) [(−)-schisandrin B] | ~4
3 | COc1cc(/C=C/c2ccccc2)oc(=O)c1 [5,6-dehydrokawain] | ~2.9
4 | COC1=CC(=O)OC(/C=C/c2ccc(OC)cc2)C1 (stereo not drawn) [5,6-dihydroyangonin] | ~2.5
5 | CC1=C(CO)C(=O)O[C@@H]([C@@H](C)[C@H]2CC[C@H]3[C@@H]4C[C@H](Cl)[C@]5(O)[C@@H](O)C=CC(=O)[C@]5(C)[C@H]4CC[C@]23C)C1 [6a-chloro-5b-hydroxywithaferin A] | ~3.2
6 | COC1=CC(=O)O[C@@H](CCc2ccc3c(c2)OCO3)C1 [7,8-dihydromethysticin] | ~2.2
7 | COc1ccc(CCc2cc(OC)cc(=O)o2)cc1 [7,8-dihydroyangonin] | ~2.9
8 | COc1cc(/C=C\c2ccc(OC)c(O)c2)oc(=O)c1 [11-hydroxyyangonin] | ~2.2
9 | COc1cc2c(c(OC)c1OC)-c1c(cc(OC)c(OC)c1OC)C[C@](C)(O)[C@@H](C)C2 [(+)-schisandrin] | ~5
10 | COc1cc2c(c(OC)c1OC)-c1c(cc(OC)c(OC)c1OC)C[C@H](C)[C@H](C)C2 [(−)-schisandrin A] | ~3.6
11 | COc1c2c(cc3c1-c1c(cc4c(c1OC)OCO4)C[C@H](C)[C@H](C)C3)OCO2 [(−)-schisandrin C] | ~3.5
12 | CC(C)=C[C@@H]1CO[C@]23C[C@]4(CO2)[C@H](CC[C@@H]2[C@@]5(C)CC[C@H](O[C@@H]6OC[C@H](O)[C@H](O[C@@H]7O[C@H](CO)[C@@H](O)[C@H](O)[C@H]7O)[C@H]6O[C@@H]6O[C@@H](CO)[C@H](O)[C@H]6O)C(C)(C)[C@@H]5CC[C@]24C)[C@H]3[C@@]1(C)O [bacopasaponin C] | ~2
13 | CC(C)=C[C@H]1C[C@](C)(O)[C@@H]2[C@H]3CC[C@@H]4[C@@]5(C)CC[C@H](O[C@@H]6OC[C@H](O)[C@H](O[C@@H]7O[C@H](CO)[C@@H](O)[C@H](O)[C@H]7O)[C@H]6O[C@@H]6O[C@@H](CO)[C@H](O)[C@H]6O)C(C)(C)[C@@H]5CC[C@@]4(C)[C@@]34CO[C@@]2(C4)O1 [bacopaside X] | ~2.2
14 | CC(C)=C[C@H]1C[C@](C)(O)[C@H]2[C@H]3CC[C@@H]4[C@@]5(C)CC[C@H](O[C@@H]6O[C@H](CO)[C@@H](O)[C@H](O[C@@H]7O[C@H](CO)[C@@H](O)[C@H](O)[C@H]7O)[C@H]6O[C@@H]6O[C@@H](CO)[C@H](O)[C@H]6O)C(C)(C)[C@@H]5CC[C@@]4(C)[C@@]34CO[C@@]2(C4)O1 [bacoside A3] | ~2.1
15 | CC(C)=CCC[C@](C)(O[C@@H]1O[C@H](CO[C@@H]2O[C@H](CO)[C@@H](O)[C@H](O)[C@H]2O)[C@@H](O)[C@H](O)[C@H]1O)[C@H]1CC[C@]2(C)[C@@H]1[C@H](O)C[C@@H]1[C@@]3(C)CC[C@H](O[C@@H]4O[C@H](CO)[C@@H](O)[C@H](O)[C@H]4O[C@@H]4O[C@H](CO)[C@@H](O)[C@H](O)[C@H]4O)C(C)(C)[C@@H]3CC[C@]12C [ginsenoside rb1] | ~−1
16 | CC(C)=CCC[C@](C)(O[C@@H]1O[C@H](CO)[C@@H](O)[C@H](O)[C@H]1O)[C@H]1CC[C@]2(C)[C@@H]1[C@H](O)C[C@@H]1[C@@]3(C)CC[C@H](O)C(C)(C)[C@@H]3[C@@H](O[C@@H]3O[C@H](CO)[C@@H](O)[C@H](O)[C@H]3O)C[C@]12C [ginsenoside rg1] | ~0.8
17 | COc1ccc(C23C=CC(O)CC2N(C)CC3)cc1OC (stereo not drawn) [mesembrenol] | ~2.4
18 | COc1ccc([C@@]23C=CC(=O)C[C@@H]2N(C)CC3)cc1OC [mesembrenone] | ~1.3
19 | COc1ccc([C@@]23CCC(=O)C[C@@H]2N(C)CC3)cc1OC [mesembrine] | ~1.5
20 | COc1nc2c(c(=O)n1C)n(C)c(=O)n2C [methylliberine] | ~−0.083
21 | CC(=O)OC1C=CC(=O)N(C(=O)CCc2ccccc2)C1 (stereo not drawn) [pipermethystine] | ~1.8
22 | COc1cc([C@H]2Oc3cc(O)c4c(=O)c(O)c(-c5ccc(O)cc5)oc4c3O[C@@H]2CO)ccc1O [rhodiolin] | ~2
23 | COc1cc2c(c(OC)c1OC)-c1c(cc(OC)c(OC)c1OC)C[C@](C)(O)[C@@H](C)C2 [schisandrol A] | ~3.4
24 | N#C[C@@]1(O[C@@H]2O[C@H](CO)[C@@H](O)[C@H](O)[C@H]2O)C=C[C@@H](O)C1 [tetraphyllin B] | ~−2.5
25 | (R)-kawain | ~2.7
26 | bacopaside B | ~2.8
27 | hericerin | ~6.4
28 | herinacine A | ~2.5
29 | schisandroside C | ~1.6
30 | tortuosomine | ~3
